Values of other authors as cited in patent US20220257802A1, “COMPRESSED SOLID COMPOSITION FOR MRI” (Ascelia Pharma AB, priority 2019, published 2022).

Details: after oral intake

## [Mn+2] [manganese]
  first-pass effect in the liver: up to 98%
